Measured values taken from patent US20080181874A1, “CELL COMPOSITION AND METHOD FOR TREATING CANCER” (priority 2007, published 2008).

Columns and labels:
[1] = test system: viable tumor cells from the right chest wall lesion (mammary carcinoma cells); assay: In vitro drug response of fresh tumor cells (DISC, MTT and redox assays); format: cell-based, human; set-up: key to ASSAY RESULT: Sensitive: A cancer cell is said to be sensitive to a drug when the drug inhibits the cell growth or proliferation of the cell to a greater degree than is expected for an appropriate control; Resistant: A cancer cell is said to be sensitive to a drug when the drug inhibits the cell growth or proliferation of the cell to a lesser degree than is expected for an appropriate control; conditions: for ASSAY RESULT: compared with a database of assays with similar technical characteristics; for ASSAY PREDICTED RESPONSE PROBABILITY: predicted from the assay result; for activity in vitro (in words): summary of the table
Description: An unfixed portion of the tumor was further analyzed for response to several drugs. A specimen consisted of 1 piece of yellow, white, and red tissue, obtained from the right chest wall lesion. The piece was soft and sticky in texture, measured 0.8×1.4 cm, and weighed 0.47 gm. The specimen was minced to individual pieces smaller than one mm with surgical scissors and digested for 1.3 hours with collagenase-DNAse. Viable tumor cells were enriched by Ficoll-diatriozate centrifugation. Cytospin slides were prepared, air-dried, and stained with Fast Green/Hamatoxyline-eosin. On this cytology preparation obtained from mechanically-dissociated, enzyme-digested tissue, there was a collection of somewhat pleomorphic tumor cells, consistent with mammary carcinoma cells. Tumor cells were present as loose cell clusters (60% of total tumor cells) and, less commonly, as discohesive single cells (40% of total tumor cells). The tumor cells measured 22-25 microns in diameter and had N/N+C ratios of 0.6-0.8. […] Nucleoli were variably prominent. There were no cells with large clear globular areas or secretory material within the cytoplasm. There was slight cytoplasmic and nuclear molding. Approximately 40% of the enriched tumor cell fraction consisted of normal-appearing connective tissue cells and inflammatory cells.
Cells were plated for testing in 3 different assay endpoints. In the DISC assay, the entire contents of the cell culture were cytocentrifuged onto permanent microscope slides and differentially stained to allow discrimination of normal and neoplastic cells and living and dead cells. […] The MTT assay measures mitochondrial metabolism in the entire cell culture. The redox assay measures total metabolic activity in the entire cell culture, using the Alamar Blue reagent to index the oxygen reduction potential of the culture medium. Because of the very low yield of viable tumor cells, only a small drug panel could be tested. Additionally, some drugs could be tested only in a single assay system.
At the conclusion of the culture period, there was 10% spontaneous attrition in viable tumor cell numbers. Formazan signal in the MTT assay was moderate, reflective of moderate cell metabolism, and allowing for an MTT assay of good quality. Percentage of tumor cells as a percentage of total viable cells at the conclusion of the culture was approximately 85. DISC and MTT assays were in reasonably good agreement. The overall technical quality of the assays was good, marred only by the low yield of tumor cells, which severely limited the scope of testing.
Results were compared with a database of assays which had similar technical characteristics, as the technical characteristics of these assays influence the in vitro results, along with the intrinsic drug resistance of the tumor cells. By controlling for technical characteristics such as spontaneous cell loss, metabolic signal at the conclusion of the culture, and tumor cell clustering, biological correlations are improved.

[2] = test system: patients with very advanced stage IV breast cancer; conditions: components of the vaccine regimen, one patient each
Description: Breast cancer patients treated with a composition comprising AKCV-1 cells (administered in conjunction with GM-CSF) were evaluated. […] A small cohort of patients with very advanced stage 1V breast cancer were treated with a vaccine consisting of 10-20×10^6 viable, irradiated tumor cells (AKCV-1) admixed with an equal number of cryopreserved peripheral blood lymphocytes obtained by leukapheresis. Patients were pretreated with low-dose cyclophosphamide 300 mg/m^2 48-72 hrs prior to vaccine and received subcutaneous injections of GM-CSF just prior, and for 8 days after, vaccine inoculation.

Compound | ASSAY RESULT [1] | ASSAY PREDICTED RESPONSE PROBABILITY [1] | activity in vitro (in words) [1] | Toxicity [2] | best drug in vitro ([1]; ranking among the drugs tested)
N.N.O=C([O-])C1(C(=O)[O-])CCC1.[Pt+2] [(4HC) Carboplatin, Carboplatin] | Resistant | 5 | poor activity | – | –
N.N.[Cl][Pt][Cl] [Cisplatin] | Intermediate | 30 | – | – | –
O=P1(N(CCCl)CCCl)NCCCO1 (centres unmarked) [Cyclophosphamide] | Sensitive | 55 | above-average activity | exacerbation of pericardial effusion and atrial fibrillation, which spontaneously resolved | –
COc1cccc2c1C(=O)c1c(O)c3c(c(O)c1C2=O)C[C@@](O)(C(=O)CO)C[C@@H]3O[C@H]1C[C@H](N)[C@H](O)[C@H](C)O1 [Doxorubicin] | Intermediate | 30 | – | – | –
COc1cc([C@@H]2c3cc4c(cc3[C@@H](O[C@@H]3O[C@@H]5CO[C@@H](C)O[C@H]5[C@H](O)[C@H]3O)[C@H]3COC(=O)[C@H]23)OCO4)cc(OC)c1O [Etoposide] | Sensitive | 55 | above-average activity | – | –
O=c1[nH]cc(F)c(=O)[nH]1 [Fluorouracil] | Intermediate | 20 | – | – | –
CC(=O)O[C@H]1C(=O)[C@@]2(C)[C@H]([C@H](OC(=O)c3ccccc3)[C@]3(O)C[C@H](OC(=O)[C@H](O)[C@@H](NC(=O)c4ccccc4)c4ccccc4)C(C)=C1C3(C)C)[C@]1(OC(C)=O)CO[C@@H]1C[C@@H]2O [Taxol (Paclitaxel), Paclitaxel] | Sensitive | 62 | above-average activity | – | best drug in vitro
CCC1=C[C@@H]2CN(C1)Cc1c([nH]c3ccccc13)[C@@](C(=O)OC)(c1cc3c(cc1OC)N(C)[C@H]1[C@@](O)(C(=O)OC)[C@H](OC(C)=O)[C@]4(CC)C=CCN5CC[C@]31[C@@H]54)C2 [Vinorelbine] | Intermediate | 30 | – | – | –
GM-CSF: granulocyte macrophage colony stimulating factor, given as subcutaneous injections | – | – | – | increasing ascites and abdominal discomfort | –
